Laboratory results taken from publication PMC7261408 (Molecular pharmaceutics, 2017).
Entries after “also recorded” stand apart in the source; their conditions may differ. Like-named read-outs stand apart in the source and are kept apart here.

Legend:
TZM-bl cells [1] = assay: MTT cell proliferation; conditions: for TI (toxicity index; ratio of cytotoxicity to neutralization IC50 values): MTT assay; for cellular cytotoxicity (in words): MTT cell proliferation assay; for cytotoxic at concentrations above: cellular cytotoxicity assays
[2] = system: HIV-1 YU2 pseudotyped viral particles; conditions: neutralization assay
[3] = Peptide stability in PBS and cell growth medium with serum; assay type: in vitro ADME; conditions: PBS and cell growth medium (DMEM) complemented with fetal bovine serum, 37 °C, 5% CO2, 24 h monitoring; LC–MS
[4] = system: HIV-1 BaL virions (gp120); assay: HIV-1 virion capture assay with gp120-specific mAbs; assay type: binding; conditions: peptide 50 μM; sCD4–2D-treated HIV-1 BaL; captured p24 Gag by AlphaLISA
[5] = system: amphotropic pseudotyped murine leukemia virus; assay: Neutralization of amphotropic pseudotyped murine leukemia virus; assay type: cell-based
[6] = system: vesicular stomatitis virus; assay type: cell-based
[7] = system: HIV-1 YU2 pseudotyped viral particles; conditions: read-out: IC50 YU2 (R5); TZM-bl cells; cited from earlier work
HIV-1 BaL26 (R5) = conditions: read-out: IC50 BaL26 (R5); TZM-bl cells; cited from earlier work
HIV-1 HxB2 (X4) = conditions: read-out: IC50 HxB2 (X4); cited from earlier work
HIV-1 NL4–3 (X4) = conditions: read-out: IC50 NL4–3 (X4); cited from earlier work
TZM-bl cells [8] = conditions: effects on host cell line TZM-bl; cited from earlier work
[9] = system: YU2 pseudotyped HIV virus; conditions: combination 2C:Nt, cited from earlier work

Substance: Ac-SSHFPFSQRQFWK-NH2 [14-1]
- TI (toxicity index; ratio of cytotoxicity to neutralization IC50 values) (TZM-bl cells [1]): >500 to 1000 µM

Substance: Ac-CSSHFPFSQFQFWK-NH2 [16-5]
- TI (toxicity index; ratio of cytotoxicity to neutralization IC50 values) (TZM-bl cells [1]): >50 µM
- cellular cytotoxicity (in words) (TZM-bl cells [1]): cytotoxic

Substance: Ac-CSSYYPFSQYQWWK-NH2 [20-5]
- cellular cytotoxicity (in words) (TZM-bl cells [1]): nontoxic at relevant concentrations

Substance: Ac-SSHFPFSQYQFWK-NH2 [12-2]
- activity against R5-tropic strain YU2 (in words) [2]: modest gains in potency
- TI (toxicity index; ratio of cytotoxicity to neutralization IC50 values) (TZM-bl cells [1]): >500 µM

Substance: Ac-SSHFPVSQYQFWK-NH2 [12-3]
- activity against R5-tropic strain YU2 (in words) [2]: modest gains in potency
- TI (toxicity index; ratio of cytotoxicity to neutralization IC50 values) (TZM-bl cells [1]): >5 µM
- cellular cytotoxicity (in words) (TZM-bl cells [1]): cytotoxic

Substance: Ac-CSSYFPFSQYQFWK-NH2 [18-2]
- TI (toxicity index; ratio of cytotoxicity to neutralization IC50 values) (TZM-bl cells [1]): >63 to 125 µM
- cytotoxic at concentrations above (TZM-bl cells [1]): above 65 μM

Substance: Ac-SSHFPWSQRQFWK-NH2 [14-2]
- TI (toxicity index; ratio of cytotoxicity to neutralization IC50 values) (TZM-bl cells [1]): >500 to 1000 µM

Substance: Ac-CSSYFPFSQYQWWK-NH2 [20-2]
- glutathione (GST) adducts detected starting around [3]: around 30 min
- TI (toxicity index; ratio of cytotoxicity to neutralization IC50 values) (TZM-bl cells [1]): >250 µM
- cellular cytotoxicity (in words) (TZM-bl cells [1]): nontoxic at relevant concentrations

Substance: Ac-CSSHFPYSQYQFWK-NH2 [2C, reference compound]
- inhibition of virion capture by mAb 19b [4]: effectively blocked virus capture
- inhibition of virion capture by mAb 268-D [4]: effectively blocked virus capture
- inhibition of virion capture by mAb 48d [4]: effectively blocked virus capture; also recorded: to a lesser extent
- inhibition of virion capture by mAb B4e8 (V3 tip) [4]: neither 2C nor 40-2 blocked capture; also recorded: neither inhibited virion capture
- inhibition of virion capture by mAb D19 (V3 tip) [4]: neither 2C nor 40-2 blocked capture; also recorded: neither inhibited virion capture
- glutathione (GST) adducts detected starting around [3]: around 30 min
- activity toward amphotropic pseudotyped murine leukemia virus (in words) [5]: inactive
- activity toward vesicular stomatitis virus (in words) [6]: inactive
- IC50 [7]: 28 ± 7 µM
- IC50 (HIV-1 BaL26 (R5)): 65 ± 3 µM
- IC50 (HIV-1 HxB2 (X4)): 54 µM
- IC50 (HIV-1 NL4–3 (X4)): 53 ± 2 µM
- LC50 (TZM-bl cells [8]): 190 µM
- dose reduction index (DRI) ([9]; ratio 1:1): 2.1 ± 0.4
- dose reduction index (DRI) ([9]; ratio 1:2): 2.6 ± 0.5
- dose reduction index (DRI) ([9]; ratio 1:5): 4.9 ± 1.0

Substance: Ac-CSSHFPFSQYQFWK-NH2 [16-2]
- TI (toxicity index; ratio of cytotoxicity to neutralization IC50 values) (TZM-bl cells [1]): >63 to 250 µM
- cytotoxic at concentrations above (TZM-bl cells [1]): above 65 μM

Substance: Ac-SSHFPWSQVQFWK-NH2 [14-6]
- activity against R5-tropic strain YU2 (in words) [2]: low activity
- TI (toxicity index; ratio of cytotoxicity to neutralization IC50 values) (TZM-bl cells [1]): >200 µM

Substance: Ac-CSSHFPFSQVQFWK-NH2 [16-6]
- TI (toxicity index; ratio of cytotoxicity to neutralization IC50 values) (TZM-bl cells [1]): >5 µM
- cellular cytotoxicity (in words) (TZM-bl cells [1]): cytotoxic

Substance: Ac-YSSYFPFSQYQWWK-NH2 [40-2]
- inhibition of virion capture by mAb 19b [4]: effectively blocked virus capture
- inhibition of virion capture by mAb 268-D [4]: effectively blocked virus capture
- inhibition of virion capture by mAb 48d [4]: effectively blocked virus capture; also recorded: to a lesser extent
- inhibition of virion capture by mAb B4e8 (V3 tip) [4]: neither 2C nor 40-2 blocked capture; also recorded: neither inhibited virion capture
- inhibition of virion capture by mAb D19 (V3 tip) [4]: neither 2C nor 40-2 blocked capture; also recorded: neither inhibited virion capture
- glutathione (GST) adduct formation (in words) [3]: never detected GST adducts
- TI (toxicity index; ratio of cytotoxicity to neutralization IC50 values) (TZM-bl cells [1]): >250 µM
- cellular cytotoxicity (in words) (TZM-bl cells [1]): nontoxic at relevant concentrations

Substance: Ac-SSHFPFSQVQFWK-NH2 [14-5]
- activity against R5-tropic strain YU2 (in words) [2]: low activity
- TI (toxicity index; ratio of cytotoxicity to neutralization IC50 values) (TZM-bl cells [1]): >500 µM

Substance: Ac-CSSHFPWSQVQFWK-NH2 [16-7]
- TI (toxicity index; ratio of cytotoxicity to neutralization IC50 values) (TZM-bl cells [1]): >75 µM
- cellular cytotoxicity (in words) (TZM-bl cells [1]): cytotoxic

Substance: Ac-CSSYFPWSQYQWWK-NH2 [30-2]
- TI (toxicity index; ratio of cytotoxicity to neutralization IC50 values) (TZM-bl cells [1]): >500 µM
- cellular cytotoxicity (in words) (TZM-bl cells [1]): nontoxic at relevant concentrations
- LC50 (TZM-bl cells [1]; effects on host cell line TZM-bl, standard deviations averaged 20%, Non-toxic = nontoxic at 500 μM): Non-toxic^f

Substance: Ac-SSHFPWSQYQFWK-NH2 [12-4]
- activity against R5-tropic strain YU2 (in words) [2]: modest gains in potency
- TI (toxicity index; ratio of cytotoxicity to neutralization IC50 values) (TZM-bl cells [1]): >500 µM

Substance: Ac-SSHFPYSQYQFWK-NH2 [12-1]
- TI (toxicity index; ratio of cytotoxicity to neutralization IC50 values) (TZM-bl cells [1]): >500 to 1000 µM

Substance: Ac-CSSHFPYSQFQFWK-NH2 [16-4]
- TI (toxicity index; ratio of cytotoxicity to neutralization IC50 values) (TZM-bl cells [1]): >100 µM
- cellular cytotoxicity (in words) (TZM-bl cells [1]): cytotoxic
